Experimental data taken from ChEMBL document CHEMBL5506059, “Cyanomethylquinolones as a New Class of Potential Multitargeting Broad-Spectrum Antibacterial Agents” (J Med Chem, 2024).
≈ marks a conversion by molar mass, not a printed value.

What was measured:
Staphylococcus aureus [1] = assay: Antibacterial activity against methicillin resistant Staphylococcus aureus clinical isolate assessed as inhibition of bacterial growth incubated for 24 hrs; type: functional
Staphylococcus aureus [2] = assay: Antibacterial activity against Staphylococcus aureus clinical isolate assessed as inhibition of bacterial growth incubated for 24 hrs; type: functional
Staphylococcus aureus [3] = assay: Antibacterial activity against Staphylococcus aureus ATCC 25923 assessed as inhibition of bacterial growth incubated for 24 hrs; type: functional
Staphylococcus aureus [4] = assay: Antibacterial activity against Staphylococcus aureus ATCC 29213 assessed as inhibition of bacterial growth incubated for 24 hrs; type: functional
Enterococcus faecalis [5] = assay: Antibacterial activity against Enterococcus faecalis clinical isolate assessed as inhibition of bacterial growth incubated for 24 hrs; type: functional
Klebsiella pneumoniae = assay: Antibacterial activity against Klebsiella pneumoniae clinical isolate assessed as inhibition of bacterial growth incubated for 24 hrs; type: functional
Escherichia coli [6] = assay: Antibacterial activity against Escherichia coli clinical isolate assessed as inhibition of bacterial growth incubated for 24 hrs; type: functional
Escherichia coli [7] = assay: Antibacterial activity against Escherichia coli ATCC 25922 assessed as inhibition of bacterial growth incubated for 24 hrs; type: functional
Pseudomonas aeruginosa [8] = assay: Antibacterial activity against Pseudomonas aeruginosa clinical isolate assessed as inhibition of bacterial growth incubated for 24 hrs; type: functional
Pseudomonas aeruginosa [9] = assay: Antibacterial activity against Pseudomonas aeruginosa ATCC 27853 assessed as inhibition of bacterial growth incubated for 24 hrs; type: functional
Acinetobacter baumannii = assay: Antibacterial activity against Acinetobacter baumannii clinical isolate assessed as inhibition of bacterial growth incubated for 24 hrs; type: functional
Streptococcus pneumoniae = assay: Antibacterial activity against Streptococcus pneumoniae ATCC 6305 assessed as inhibition of bacterial growth incubated for 24 hrs; type: functional
Streptococcus pyogenes = assay: Antibacterial activity against Streptococcus pyogenes ATCC 19615 assessed as inhibition of bacterial growth incubated for 24 hrs; type: functional
[10] = test system: Staphylococcus epidermidis; assay: Antibacterial activity against Staphylococcus epidermidis ATCC 12228 assessed as inhibition of bacterial growth incubated for 24 hrs; type: functional
Staphylococcus aureus [11] = assay: Antibacterial activity against methicillin-resistant Staphylococcus aureus ATCC 43300 assessed as inhibition of bacterial growth incubated for 24 hrs; type: functional
Staphylococcus aureus [12] = assay: Antibacterial activity against Staphylococcus aureus ATCC 12600 assessed as inhibition of bacterial growth incubated for 24 hrs; type: functional
Staphylococcus aureus [13] = assay: Antibacterial activity against Staphylococcus aureus ATCC 6538 assessed as inhibition of bacterial growth incubated for 24 hrs; type: functional
Staphylococcus aureus [14] = assay: Antibacterial activity against Staphylococcus aureus CMCC(B)26003 assessed as inhibition of bacterial growth incubated for 24 hrs; type: functional
Staphylococcus aureus [15] = assay: Antibacterial activity against Staphylococcus aureus CMCC(B)26001 assessed as inhibition of bacterial growth incubated for 24 hrs; type: functional
Enterococcus faecium = assay: Antibacterial activity against Enterococcus faecium ATCC 19434 assessed as inhibition of bacterial growth incubated for 24 hrs; type: functional
Enterococcus faecalis [16] = assay: Antibacterial activity against vancomycin-resistant Enterococcus faecalis clinical isolate p1-2007226001 assessed as inhibition of bacterial growth incubated for 24 hrs; type: functional
Enterococcus faecalis [17] = assay: Antibacterial activity against vancomycin-resistant Enterococcus faecalis clinical isolate p1-2007225053 assessed as inhibition of bacterial growth incubated for 24 hrs; type: functional
Erythrocyte = assay: Hemolytic activity in human Red blood cells assessed as concentration required for 5% hemolysis measured after 1.5 hrs by absorbance based assay; type: toxicity, cell-based
[18] = Hemolytic activity in human Red blood cells at 256 ug/ml measured after 1.5 hrs by absorbance based assay relative to control; type: toxicity, cell-based, Erythrocyte; conditions: red blood cells (erythrocytes), at 256 µg/mL, read-out: Activity

CCCCCCCCn1cc(C(=O)O)c(=O)c2cc(F)c(CC#N)cc21
MIC (Staphylococcus aureus [1]): 256 µg/mL (≈ 714 µM) | MIC (Staphylococcus aureus [2]): 256 µg/mL (≈ 714 µM) | MIC (Staphylococcus aureus [3]): 1 µg/mL (≈ 2.79 µM) | MIC (Staphylococcus aureus [4]): 256 µg/mL (≈ 714 µM) | MIC (Enterococcus faecalis [5]): 256 µg/mL (≈ 714 µM) | MIC (Klebsiella pneumoniae): 256 µg/mL (≈ 714 µM) | MIC (Escherichia coli [6]): 0.5 µg/mL (≈ 1.4 µM) | MIC (Escherichia coli [7]): 256 µg/mL (≈ 714 µM) | MIC (Pseudomonas aeruginosa [8]): 2 µg/mL (≈ 5.58 µM) | MIC (Pseudomonas aeruginosa [9]): 256 µg/mL (≈ 714 µM) | MIC (Acinetobacter baumannii): 256 µg/mL (≈ 714 µM) | MIC (Streptococcus pneumoniae): 64 µg/mL (≈ 179 µM) | MIC (Streptococcus pyogenes): 2 µg/mL (≈ 5.58 µM) | MIC [10]: 128 µg/mL (≈ 357 µM) | MIC (Staphylococcus aureus [11]): 64 µg/mL (≈ 179 µM) | MIC (Staphylococcus aureus [12]): 32 µg/mL (≈ 89.3 µM) | MIC (Staphylococcus aureus [13]): 64 µg/mL (≈ 179 µM) | MIC (Staphylococcus aureus [14]): 2 µg/mL (≈ 5.58 µM) | MIC (Staphylococcus aureus [15]): 2 µg/mL (≈ 5.58 µM) | MIC (Enterococcus faecium): 128 µg/mL (≈ 357 µM) | MIC (Enterococcus faecalis [16]): 128 µg/mL (≈ 357 µM) | MIC (Enterococcus faecalis [17]): 256 µg/mL (≈ 714 µM) | HC5 (Erythrocyte): 258 µg/mL

CCn1cc(C(=O)O)c(=O)c2cc(F)c(CC#N)cc21
MIC (Staphylococcus aureus [1]): 1 µg/mL (≈ 3.65 µM) | MIC (Staphylococcus aureus [2]): 1 µg/mL (≈ 3.65 µM) | MIC (Staphylococcus aureus [3]): 0.25 µg/mL (≈ 0.912 µM) | MIC (Staphylococcus aureus [4]): 4 µg/mL (≈ 14.6 µM) | MIC (Enterococcus faecalis [5]): 32 µg/mL (≈ 117 µM) | MIC (Klebsiella pneumoniae): 2 µg/mL (≈ 7.29 µM) | MIC (Escherichia coli [6]): 4 µg/mL (≈ 14.6 µM) | MIC (Escherichia coli [7]): 2 µg/mL (≈ 7.29 µM) | MIC (Pseudomonas aeruginosa [8]): 0.5 µg/mL (≈ 1.82 µM) | MIC (Pseudomonas aeruginosa [9]): 0.25 µg/mL (≈ 0.912 µM) | MIC (Acinetobacter baumannii): 0.5 µg/mL (≈ 1.82 µM) | MIC (Streptococcus pneumoniae): 32 µg/mL (≈ 117 µM) | MIC (Streptococcus pyogenes): 1 µg/mL (≈ 3.65 µM) | MIC [10]: 256 µg/mL (≈ 933 µM) | MIC (Staphylococcus aureus [11]): 128 µg/mL (≈ 467 µM) | MIC (Staphylococcus aureus [12]): 64 µg/mL (≈ 233 µM) | MIC (Staphylococcus aureus [13]): 2 µg/mL (≈ 7.29 µM) | MIC (Staphylococcus aureus [14]): 4 µg/mL (≈ 14.6 µM) | MIC (Staphylococcus aureus [15]): 4 µg/mL (≈ 14.6 µM) | MIC (Enterococcus faecium): 256 µg/mL (≈ 933 µM) | MIC (Enterococcus faecalis [16]): 128 µg/mL (≈ 467 µM) | MIC (Enterococcus faecalis [17]): 128 µg/mL (≈ 467 µM) | HC5 (Erythrocyte): > 10000 µg/mL | hemolysis at 1.5 h, 256 ug/ml [18]: < 1%

O=C(O)Cc1cc2c(cc1F)c(=O)c(C(=O)O)cn2Cc1ccccc1Cl
MIC (Staphylococcus aureus [1]): 32 µg/mL (≈ 82.1 µM) | MIC (Staphylococcus aureus [2]): 32 µg/mL (≈ 82.1 µM) | MIC (Staphylococcus aureus [3]): 16 µg/mL (≈ 41.1 µM) | MIC (Staphylococcus aureus [4]): 8 µg/mL (≈ 20.5 µM) | MIC (Enterococcus faecalis [5]): 32 µg/mL (≈ 82.1 µM) | MIC (Klebsiella pneumoniae): 0.5 µg/mL (≈ 1.28 µM) | MIC (Escherichia coli [6]): 32 µg/mL (≈ 82.1 µM) | MIC (Escherichia coli [7]): 8 µg/mL (≈ 20.5 µM) | MIC (Pseudomonas aeruginosa [8]): 64 µg/mL (≈ 164 µM) | MIC (Pseudomonas aeruginosa [9]): 4 µg/mL (≈ 10.3 µM) | MIC (Acinetobacter baumannii): 32 µg/mL (≈ 82.1 µM)

O=C(O)Cc1cc2c(cc1F)c(=O)c(C(=O)O)cn2Cc1ccccc1
MIC (Staphylococcus aureus [1]): 16 µg/mL (≈ 45 µM) | MIC (Staphylococcus aureus [2]): 32 µg/mL (≈ 90.1 µM) | MIC (Staphylococcus aureus [3]): 16 µg/mL (≈ 45 µM) | MIC (Staphylococcus aureus [4]): 64 µg/mL (≈ 180 µM) | MIC (Enterococcus faecalis [5]): 32 µg/mL (≈ 90.1 µM) | MIC (Klebsiella pneumoniae): 4 µg/mL (≈ 11.3 µM) | MIC (Escherichia coli [6]): 64 µg/mL (≈ 180 µM) | MIC (Escherichia coli [7]): 8 µg/mL (≈ 22.5 µM) | MIC (Pseudomonas aeruginosa [8]): 32 µg/mL (≈ 90.1 µM) | MIC (Pseudomonas aeruginosa [9]): 8 µg/mL (≈ 22.5 µM) | MIC (Acinetobacter baumannii): 64 µg/mL (≈ 180 µM)

N#CCc1cc2c(cc1F)c(=O)c(C(=O)O)cn2CC1CCCC1
MIC (Staphylococcus aureus [1]): 256 µg/mL (≈ 780 µM) | MIC (Staphylococcus aureus [2]): 128 µg/mL (≈ 390 µM) | MIC (Staphylococcus aureus [3]): 64 µg/mL (≈ 195 µM) | MIC (Staphylococcus aureus [4]): 256 µg/mL (≈ 780 µM) | MIC (Enterococcus faecalis [5]): 256 µg/mL (≈ 780 µM) | MIC (Klebsiella pneumoniae): 256 µg/mL (≈ 780 µM) | MIC (Escherichia coli [6]): 32 µg/mL (≈ 97.5 µM) | MIC (Escherichia coli [7]): 256 µg/mL (≈ 780 µM) | MIC (Pseudomonas aeruginosa [8]): 256 µg/mL (≈ 780 µM) | MIC (Pseudomonas aeruginosa [9]): 128 µg/mL (≈ 390 µM) | MIC (Acinetobacter baumannii): 128 µg/mL (≈ 390 µM)
